What is called pIC50 is −log10 of the IC50, conventionally taken in molar units. As usually defined, the Ki is the equilibrium dissociation constant of an inhibitor or competing ligand from its target.

pIC50: −log10 of the molar value.

From patent US9605005B2, “Alkynyl alcohols and methods of use” (Genentech, Inc., priority 2013, dated 2017) come the findings set out here.

The subject of assay [1] is p52 (NF-kB2) nuclear translocation, HeLa cells. Put plainly: p52 (NF-kB2) nuclear translocation assay in HeLa cells (non-classical NF-kB signaling, anti-lymphotoxin beta receptor antibody stimulated). Type of assay: cell-based. As to conditions: Homo sapiens, 100 ng/mL anti-lymphotoxin beta receptor antibody for 5 hours, read-out: p52 HeLa Transloc Assay (IC50). A digest of the protocol: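 HeLa cells in 10% FBS medium were treated with compound (0.2% DMSO final) and stimulated with 100 ng/mL anti-lymphotoxin beta receptor antibody for 5 h. Fixed cells were immunostained for p52 and imaged with DRAQ5 nuclear stain. Translocation is the nuclear to cytoplasmic intensity ratio, and IC50 values are in micromolar.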

Assay [2] relates to REL-A (p65) nuclear translocation, HeLa cells. Put plainly: REL-A (p65) nuclear translocation assay in HeLa cells (classical NF-kB signaling, TNF-α stimulated). The conditions noted are these: Homo sapiens, 0.5 h; HeLa cells, 10 ng/mL TNF-α for 30 minutes; read-out: REL-A HeLa Transloc Assay (IC50). The assay is classed as cell-based. The gist of the method: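 HeLa cells were exposed to test compounds at various concentrations (0.2% DMSO final) in medium with 10% fetal bovine serum for 4.5 hours, then stimulated for 30 minutes with 10 ng/mL TNF-α. After fixation in 4% paraformaldehyde, 0.1% Triton X-100 permeabilization and staining with 400 ng/mL anti-REL-A (p65) antibody, Alexa488 secondary and DRAQ5, Opera imaging gave nuclear-to-cytoplasmic signal ratios to calculate IC50.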

The target of assay [3] is nuclear factor-kappa B (NF-kB)-inducing kinase (NIK) (Homo sapiens (Human), UniProt Q99558). Put plainly: NIK enzyme inhibition assay (Transcreener ADP, NIK ADP-FP). The assay is classed as biochemical. The conditions noted are these: purified NIK 0.5 nM, 10 μM ATP, fluorescence polarization; read-out: NIK ADP-FP (Ki μM).
Chain of nuclear factor-kappa B (NF-kB)-inducing kinase (NIK) (Q99558 whole entry): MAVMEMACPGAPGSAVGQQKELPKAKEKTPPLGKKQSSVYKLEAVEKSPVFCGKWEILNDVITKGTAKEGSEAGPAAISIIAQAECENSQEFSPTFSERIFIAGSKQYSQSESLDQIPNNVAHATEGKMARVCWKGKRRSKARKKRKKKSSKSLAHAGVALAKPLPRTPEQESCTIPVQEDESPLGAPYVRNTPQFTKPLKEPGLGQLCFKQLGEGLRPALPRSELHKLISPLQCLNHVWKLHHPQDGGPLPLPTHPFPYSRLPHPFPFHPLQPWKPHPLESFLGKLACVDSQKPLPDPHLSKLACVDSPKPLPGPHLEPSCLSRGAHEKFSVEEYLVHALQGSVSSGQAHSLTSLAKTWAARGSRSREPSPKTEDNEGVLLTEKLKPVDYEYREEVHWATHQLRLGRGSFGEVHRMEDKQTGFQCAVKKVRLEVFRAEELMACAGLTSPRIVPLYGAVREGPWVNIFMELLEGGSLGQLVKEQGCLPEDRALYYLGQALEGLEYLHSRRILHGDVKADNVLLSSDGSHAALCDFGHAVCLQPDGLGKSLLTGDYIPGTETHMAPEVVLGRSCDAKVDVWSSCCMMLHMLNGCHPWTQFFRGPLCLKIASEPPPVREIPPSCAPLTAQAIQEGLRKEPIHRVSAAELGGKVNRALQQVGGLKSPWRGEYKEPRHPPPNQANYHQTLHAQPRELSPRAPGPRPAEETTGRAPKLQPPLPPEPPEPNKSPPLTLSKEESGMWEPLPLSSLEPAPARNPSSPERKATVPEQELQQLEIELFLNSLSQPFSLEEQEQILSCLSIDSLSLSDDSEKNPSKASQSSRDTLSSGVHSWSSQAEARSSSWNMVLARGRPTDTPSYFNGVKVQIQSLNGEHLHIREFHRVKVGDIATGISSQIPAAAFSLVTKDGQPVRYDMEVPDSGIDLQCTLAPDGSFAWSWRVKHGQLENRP

For the molecule `CN1CC[C@@](O)(C#Cc2cccc(-n3nc(C(N)=O)c4cc(-c5cnn(CCO)c5)ccc43)c2)C1=O` [Compound 113, 5-[1-(2-hydroxyethyl)pyrazol-4-yl]-1-[3-[2-[(3R)-3-hy-droxy-1-methyl-2-oxo-pyrroli-din-3-yl]ethynyl]phenyl] indazole-3-carboxamide], the results for the pIC50 in assay [1] and in assay [2] were 6.36 and 4.70, respectively. In addition, the Ki in assay [3] was 0.07 nM.

Regarding `CN1CC[C@@](O)(C#Cc2cccc(-n3nc(C(N)=O)c4cncnc43)c2)C1=O` [Compound 114, 1-[3-[2-[(3R)-3-hydroxy-1-methyl-2-oxo-pyrrolidin-3-yl]ethynyl]phenyl]pyrazolo [3,4-d]pyrimidine-3-carbox-amide], the pIC50 in assay [1] was 7.40; in assay [2], 4.70. Also, the Ki in assay [3] was 0.19 nM.

`C[C@@](O)(C#Cc1cccc(-n2nc(C(N)=O)c3ccccc32)c1)c1c[nH]nn1` [Compound 117, 1-[3-[(3R)-3-hydroxy-3-(1H-triazol-4-yl)but-1-ynyl]phe-nyl]indazole-3-carboxamide]: the pIC50 in assay [1] was 7.13; in assay [2], 4.70. The Ki in assay [3] was determined as 0.32 nM.

`CN1CC[C@@](O)(C#Cc2cccc(-n3nc(C(N)=O)c4c3CCC4)c2)C1=O` [Compound 119, 1-[3-[2-[(3R)-3-hydroxy-1-methyl-2-oxo-pyrrolidin-3-yl]ethynyl]phenyl]-5,6-dihydro-4H-cyclopenta[c]pyrazole-3-carboxamide]: the pIC50 in assay [1] is 7.34; in assay [2] it was 4.70. For the same molecule, the Ki in assay [3] amounted to 0.43 nM.

For the molecule `CN1CC[C@@](O)(C#Cc2cccc(-n3nc(C(N)=O)c4c3CCN(c3ccncn3)C4)c2)C1=O` [Compound 120, 1-[3-[2-[(3R)-3-hydroxy-1-methyl-2-oxo-pyrrolidin-3-yl]ethynyl]phenyl]-5-pyrimi-din-4-yl-6,7-dihydro-4H-pyra-zolo[4,5-c]pyridine-3-carbox-amide], the pIC50 was 5.84 in assay [1] and 4.70 in assay [2]. Besides, the Ki in assay [3] came out at 0.52 nM.

On to `CN1CC[C@@](O)(C#Cc2cccc(-n3nc(C(N)=O)c4c3CCN(c3ncccn3)C4)c2)C1=O` [Compound 121, 1-[3-[2-[(3R)-3-hydroxy-1-methyl-2-oxo-pyrrolidin-3-yl]ethynyl]phenyl]-5-pyrimi-din-2-yl-6,7-dihydro-4H-pyra-zolo[4,3-c]pyridine-3-carbox-amide], for which the negative-log IC50 (pIC50) in assay [1] was 6.69; in assay [2], 4.70. For the same molecule, the Ki in assay [3] is 1.05 nM.

With `CN1CC[C@@](O)(C#Cc2cccc(-n3nc(C(N)=O)c4c3CCN(c3nccs3)C4)c2)C1=O` [Compound 122, 1-[3-[2-[(3R)-3-hydroxy-1-methyl-2-oxo-pyrrolidin-3-yl]ethynyl]phenyl]-5-thiazol-2-yl-6,7-dihydro-4H-pyra-zolo[4,3-c]pyridine-3-carbox-amide], the pIC50 in assay [1] is 6.58; in assay [2] it was 4.70. Moreover, the Ki in assay [3] was determined as 0.29 nM.

As for `CCNc1nccc2c1c(C(N)=O)nn2-c1cccc(C#C[C@]2(O)CCN(C)C2=O)c1` [Compound 129, 4-(ethylamino)-1-[3-[2-[(3R)-3-hydroxy-1-methyl-2-oxo-pyrrolidin-3-yl]ethynyl]phenyl]pyrazolo[4,3-c]pyri-dine-3-carboxamide], the figures for the pIC50 in assay [1] and in assay [2] were 8.09 and 5.35, respectively. Further, the Ki in assay [3] came to 0.05 nM.

`CN1CC[C@@](O)(C#Cc2cccc(-n3nc(C(N)=O)c4c(NC5CC5)nccc43)c2)C1=O` [Compound 130, 4-(cyclopropylamino)-1-[3-[2-[(3R)-3-hydroxy-1-meth-yl-2-oxo-pyrrolidin-3-yl]eth-ynyl]phenyl]pyrazolo[4,3-c]pyridine-3-carboxamide]: the negative-log IC50 (pIC50) in assay [1] was 7.27; in assay [2], 5.70. For the same molecule, in assay [3], the Ki stood at 0.11 nM.

With `Cc1cc2c(cn1)c(C(N)=O)nn2-c1cccc(C#C[C@]2(O)CCN(C)C2=O)c1` [Compound 131, 1-[3-[2-[(3R)-3-hydroxy-1-methyl-2-oxo-pyrrolidin-3-yl]ethynyl]phenyl]-6-methyl-pyrazolo[4,3-c]pyridine-3-carboxamide], the pIC50 is 7.06 in assay [1] and 4.70 in assay [2]. Also, the Ki in assay [3] was 0.31 nM.

For `CN1CC[C@@](O)(C#Cc2cccc(-n3nc(C(N)=O)c4cnccc43)c2)C1=O` [Compound 132, 1-[3-[2-[(3R)-3-hydroxy-1-methyl-2-oxo-pyrrolidin-3-yl]ethynyl]phenyl]pyrazolo [4,3-c]pyridine-3-carboxamide], the pIC50 in assay [1] was 7.05; in assay [2] it was 4.70. The Ki in assay [3] amounted to 0.378 nM.

As for `N#Cc1cc2c(cn1)c(C(N)=O)nn2-c1cccc(C#C[C@@]2(O)CCc3cccnc32)c1` [Compound 135, 6-cyano-1-[3-[2-[(7S)-7-hy-droxy-5,6-dihydrocyclopen-ta[b]pyridin-7-yl]ethynyl]phe-nyl]pyrazolo[4,3-c]pyridine-3-carboxamide], the negative logarithm of the IC50 (pIC50) in assay [1] was 7.04; in assay [2], 4.70. Further, in assay [3], the Ki stood at 0.7 nM.

`CCOc1cc2c(cn1)c(C(N)=O)nn2-c1cccc(C#C[C@]2(O)CCN(C)C2=O)c1` [Compound 136, 6-ethoxy-1-[3-[2-[(3R)-3-hy-droxy-1-methyl-2-oxo-pyrroli-din-3-yl]ethynyl]phenyl] pyrazolo[4,3-c]pyridine-3-carboxamide]: the pIC50 was 7.14 in assay [1] and 4.70 in assay [2]. The Ki in assay [3] amounted to 0.39 nM.

In the case of `CN1CC[C@@](O)(C#Cc2cccc(-n3nc(C(N)=O)c4cnc(N5CCCC5)cc43)c2)C1=O` [Compound 137, 1-[3-[2-[(3R)-3-hydroxy-1-methyl-2-oxo-pyrrolidin-3-yl]ethynyl]phenyl]-6-pyrroli-din-1-yl-pyrazolo[4,3-c]pyri-dine-3-carboxamide], the pIC50 in assay [1] is 7.47; in assay [2] it was 4.70. Moreover, the Ki in assay [3] is 0.25 nM.

Regarding `COc1cc2c(cn1)c(C(N)=O)nn2-c1cccc(C#C[C@]2(O)CCN(C)C2=O)c1` [Compound 140, 1-[3-[2-[(3R)-3-hydroxy-1-methyl-2-oxo-pyrrolidin-3-yl]ethynyl]phenyl]-6-methoxy-pyrazolo[4,3-c]pyridine-3-carboxamide], the pIC50 was 7.42 in assay [1] and 5.10 in assay [2]. For the same molecule, in assay [3], the Ki amounted to 0.05 nM.

Regarding `CCCC(=O)N(C)Cc1ccc2c(c1)c(C(N)=O)nn2-c1cc(C#C[C@]2(O)CCN(C)C2=O)ccn1` [Compound 142, 5-[[butanoyl(methyl)amino]methyl]-1-[4-[2-[(3R)-3-hy-droxy-1-methyl-2-oxo-pyrroli-din-3-yl]ethynyl]-2-pyri-dyl]indazole-3-carboxamide], the pIC50 in assay [1] was 6.10; in assay [2], 4.70. Further, in assay [3], the Ki was 1.71 nM.

As to `CN1CC[C@@](O)(C#Cc2cccc(-n3nc(C(N)=O)c4scnc43)c2)C1=O` [Compound 144, 1-[3-[2-[(3R)-3-hydroxy-1-methyl-2-oxo-pyrrolidin-3-yl]ethynyl]phenyl]pyrazolo [3,4-d]thiazole-3-carboxamide], the pIC50 in assay [1] was 7.48; in assay [2], 4.70. The Ki in assay [3] amounted to 0.31 nM.

`CN1CC[C@@](O)(C#Cc2ccc(F)c(-n3nc(C(N)=O)c4c3CCC4)c2)C1=O` [Compound 145, 1-[2-fluoro-5-[2-[(3R)-3-hy-droxy-1-methyl-2-oxo-pyrroli-din-3-yl]ethynyl]phenyl]-5,6-dihydro-4H-cyclopenta [c]pyrazole-3-carboxamide]: the pIC50 was 6.58 in assay [1] and 4.70 in assay [2]. The inhibition constant (Ki) in assay [3] was 1.24 nM.

Take `CN1CC[C@@](O)(C#Cc2cccc(-n3nc(C(N)=O)c4c3COC4)c2)C1=O` [Compound 146, 1-[3-[2-[(3R)-3-hydroxy-1-methyl-2-oxo-pyrrolidin-3-yl]ethynyl]phenyl]-4,6-dihydro-furo[3,4-c]pyrazole-3-carbox-amide]: the pIC50 in assay [1] was 6.66; in assay [2], 4.70. Also, the inhibition constant Ki in assay [3] was found to be 1.77 nM.

As for `CN1CC[C@@](O)(C#Cc2cccc(-c3nn(C(N)=O)c4ccccc34)c2)C1=O` [Compound 147, 3-[3-[2-[(3R)-3-hydroxy-1-methyl-2-oxo-pyrrolidin-3-yl]ethynyl]phenyl]indazole-1-carboxamide], the pIC50 in assay [1] is 7.85; in assay [2] it was 4.70. In addition, the Ki in assay [3] came out at 0.324 nM.

Consider `CN1CC[C@@](O)(C#Cc2cccc(-n3nc(C(N)=O)c4ccncc43)c2)C1=O` [Compound 148, 1-[3-[2-[(3R)-3-hydroxy-1-methyl-2-oxo-pyrrolidin-3-yl]ethynyl]phenyl]pyrazolo [3,4-c]pyridine-3-carboxamide], for which the pIC50 was 6.96 in assay [1] and 4.70 in assay [2]. Also, the Ki in assay [3] stood at 0.38 nM.

As to `Cc1cc2c(C(N)=O)nn(-c3cccc(C#C[C@]4(O)CCN(C)C4=O)c3)c2cn1` [Compound 149, 1-[3-[2-[(3R)-3-hydroxy-1-methyl-2-oxo-pyrrolidin-3-yl]ethynyl]phenyl]-5-methyl-pyrazolo[3,4-c]pyridine-3-carboxamide], the pIC50 in assay [1] was 6.67; in assay [2], 4.70. In addition, the Ki in assay [3] was determined as 1.08 nM.
